Experimental data: ChEMBL document CHEMBL5465560, “Selectivity Literature for EUbOPEN Chemogenomic Library” (2024)

How the values were obtained:
Ephrin type-A receptor 4 = Ephrin type-A receptor 4 (Homo sapiens, UniProt P54764); experiment: Selectivity interaction (Upstate Kinase Profiler service (Millipore)) EUB0000056c EPHA4; conditions: at 1 µM
[1] = target: Casein kinase I isoform gamma-3 (Homo sapiens) (UniProt Q9Y6M4); experiment: Selectivity interaction (Kinase panel (Z-LYTE Assay)) EUB0001632a CSNK1G3; conditions: at 10 µM
Chain of Casein kinase I isoform gamma-3 (Homo sapiens) (Q9Y6M4 whole entry, looked up, canonical isoform): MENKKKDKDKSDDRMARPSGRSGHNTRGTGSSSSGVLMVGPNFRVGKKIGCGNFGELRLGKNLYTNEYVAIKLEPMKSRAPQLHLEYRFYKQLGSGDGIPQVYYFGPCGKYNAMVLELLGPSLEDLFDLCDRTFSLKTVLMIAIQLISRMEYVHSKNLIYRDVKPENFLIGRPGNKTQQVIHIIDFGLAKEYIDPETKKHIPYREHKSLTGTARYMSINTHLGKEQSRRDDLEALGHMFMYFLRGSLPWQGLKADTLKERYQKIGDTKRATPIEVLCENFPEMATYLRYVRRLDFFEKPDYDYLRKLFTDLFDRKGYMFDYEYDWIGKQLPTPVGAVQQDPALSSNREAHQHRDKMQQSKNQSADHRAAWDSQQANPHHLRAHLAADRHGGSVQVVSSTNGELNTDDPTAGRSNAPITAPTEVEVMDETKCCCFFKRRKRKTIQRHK

[2] = target: T1, Serine/threonine-protein kinase RIO1 (Homo sapiens) (UniProt Q9BRS2); experiment: Selectivity interaction (KinomeScan (DiscoverX)) EUB0000607a RIOK1; conditions: at 10 µM
T1 sequence (whole entry): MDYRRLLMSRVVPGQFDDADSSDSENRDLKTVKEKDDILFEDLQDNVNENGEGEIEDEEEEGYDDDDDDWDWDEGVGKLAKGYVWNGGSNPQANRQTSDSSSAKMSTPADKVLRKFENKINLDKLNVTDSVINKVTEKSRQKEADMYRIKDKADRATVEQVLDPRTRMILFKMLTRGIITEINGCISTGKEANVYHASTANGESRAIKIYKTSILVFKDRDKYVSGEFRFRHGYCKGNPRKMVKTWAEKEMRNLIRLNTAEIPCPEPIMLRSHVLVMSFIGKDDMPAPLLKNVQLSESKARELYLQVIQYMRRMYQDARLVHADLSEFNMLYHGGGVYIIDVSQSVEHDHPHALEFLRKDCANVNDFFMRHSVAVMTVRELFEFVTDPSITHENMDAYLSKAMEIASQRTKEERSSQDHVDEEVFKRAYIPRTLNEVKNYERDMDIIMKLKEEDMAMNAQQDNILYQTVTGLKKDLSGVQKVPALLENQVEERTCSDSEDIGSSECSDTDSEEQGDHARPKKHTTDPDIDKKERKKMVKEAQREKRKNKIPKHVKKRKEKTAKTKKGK

[3] = target: T2, TGF-beta receptor type-1 (Homo sapiens) (UniProt P36897); experiment: Selectivity interaction (KinomeScan (DiscoverX)) EUB0000607a TGFBR1; conditions: at 10 µM
T2 sequence (whole entry): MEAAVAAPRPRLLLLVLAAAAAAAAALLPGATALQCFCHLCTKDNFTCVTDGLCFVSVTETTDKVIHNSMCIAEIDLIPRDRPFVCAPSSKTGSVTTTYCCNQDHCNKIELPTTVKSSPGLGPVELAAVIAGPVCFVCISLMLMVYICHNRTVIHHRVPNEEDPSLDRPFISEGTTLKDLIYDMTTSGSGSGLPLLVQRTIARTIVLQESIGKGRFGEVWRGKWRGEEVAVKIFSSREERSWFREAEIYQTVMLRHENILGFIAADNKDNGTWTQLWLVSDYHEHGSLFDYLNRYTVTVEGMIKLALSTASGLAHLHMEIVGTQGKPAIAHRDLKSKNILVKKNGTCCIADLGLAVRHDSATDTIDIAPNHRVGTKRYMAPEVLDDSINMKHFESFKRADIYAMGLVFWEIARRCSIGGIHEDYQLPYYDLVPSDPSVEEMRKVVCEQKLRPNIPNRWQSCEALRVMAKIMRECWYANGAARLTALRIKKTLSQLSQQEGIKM

[4] = target: T3, Dual serine/threonine and tyrosine protein kinase (Homo sapiens) (UniProt Q6XUX3); experiment: Selectivity interaction (KinomeScan (DiscoverX)) EUB0001619a DSTYK; conditions: at 1 µM
T3 sequence (whole entry): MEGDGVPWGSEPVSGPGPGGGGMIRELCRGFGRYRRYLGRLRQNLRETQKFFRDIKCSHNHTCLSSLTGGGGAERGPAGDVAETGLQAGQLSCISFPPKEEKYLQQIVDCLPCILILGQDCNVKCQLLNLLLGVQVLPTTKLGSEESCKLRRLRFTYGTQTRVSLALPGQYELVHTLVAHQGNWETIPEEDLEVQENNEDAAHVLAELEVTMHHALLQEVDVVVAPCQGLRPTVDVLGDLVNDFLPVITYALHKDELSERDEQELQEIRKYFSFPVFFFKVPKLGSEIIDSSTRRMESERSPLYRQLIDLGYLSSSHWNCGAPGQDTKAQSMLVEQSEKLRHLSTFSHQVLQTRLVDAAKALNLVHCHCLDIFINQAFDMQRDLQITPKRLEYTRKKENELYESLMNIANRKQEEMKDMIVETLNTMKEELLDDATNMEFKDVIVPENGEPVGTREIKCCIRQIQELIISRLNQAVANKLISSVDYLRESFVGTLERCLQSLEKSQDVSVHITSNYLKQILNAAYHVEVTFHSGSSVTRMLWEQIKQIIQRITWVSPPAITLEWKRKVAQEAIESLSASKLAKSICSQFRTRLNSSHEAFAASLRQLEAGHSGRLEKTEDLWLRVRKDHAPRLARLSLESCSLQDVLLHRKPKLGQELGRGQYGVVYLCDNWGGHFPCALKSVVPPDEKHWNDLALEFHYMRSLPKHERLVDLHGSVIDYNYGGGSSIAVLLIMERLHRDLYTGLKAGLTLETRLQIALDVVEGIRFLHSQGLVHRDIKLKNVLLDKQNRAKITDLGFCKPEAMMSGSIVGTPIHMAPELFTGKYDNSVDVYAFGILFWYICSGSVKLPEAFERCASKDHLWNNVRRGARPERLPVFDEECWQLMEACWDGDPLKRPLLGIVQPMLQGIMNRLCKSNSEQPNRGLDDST

[5] = target: T4, Serine/threonine-protein kinase 3 (Homo sapiens) (UniProt Q13188); experiment: Selectivity interaction (ActivX KiNativ screen (ex vivo kinase selectivity in human PBMCs)) EUB0001619a STK3; format: cell-based; conditions: PBMC, at 1 µM
T4 sequence (whole entry): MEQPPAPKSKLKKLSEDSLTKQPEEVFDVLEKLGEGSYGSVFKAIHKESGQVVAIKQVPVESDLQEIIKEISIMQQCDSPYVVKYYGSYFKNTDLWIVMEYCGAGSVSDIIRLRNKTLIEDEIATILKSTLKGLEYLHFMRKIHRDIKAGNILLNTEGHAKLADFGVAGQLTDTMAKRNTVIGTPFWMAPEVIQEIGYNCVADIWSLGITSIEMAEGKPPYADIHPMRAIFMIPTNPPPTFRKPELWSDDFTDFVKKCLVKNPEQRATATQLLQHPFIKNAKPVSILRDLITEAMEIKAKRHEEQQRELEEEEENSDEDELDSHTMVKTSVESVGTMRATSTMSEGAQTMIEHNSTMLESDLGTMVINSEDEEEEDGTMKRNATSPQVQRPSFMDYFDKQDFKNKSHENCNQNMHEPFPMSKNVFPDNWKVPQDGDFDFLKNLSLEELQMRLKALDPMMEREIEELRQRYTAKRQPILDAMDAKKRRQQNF

Chain of Ephrin type-A receptor 4 (P54764 whole entry, canonical isoform): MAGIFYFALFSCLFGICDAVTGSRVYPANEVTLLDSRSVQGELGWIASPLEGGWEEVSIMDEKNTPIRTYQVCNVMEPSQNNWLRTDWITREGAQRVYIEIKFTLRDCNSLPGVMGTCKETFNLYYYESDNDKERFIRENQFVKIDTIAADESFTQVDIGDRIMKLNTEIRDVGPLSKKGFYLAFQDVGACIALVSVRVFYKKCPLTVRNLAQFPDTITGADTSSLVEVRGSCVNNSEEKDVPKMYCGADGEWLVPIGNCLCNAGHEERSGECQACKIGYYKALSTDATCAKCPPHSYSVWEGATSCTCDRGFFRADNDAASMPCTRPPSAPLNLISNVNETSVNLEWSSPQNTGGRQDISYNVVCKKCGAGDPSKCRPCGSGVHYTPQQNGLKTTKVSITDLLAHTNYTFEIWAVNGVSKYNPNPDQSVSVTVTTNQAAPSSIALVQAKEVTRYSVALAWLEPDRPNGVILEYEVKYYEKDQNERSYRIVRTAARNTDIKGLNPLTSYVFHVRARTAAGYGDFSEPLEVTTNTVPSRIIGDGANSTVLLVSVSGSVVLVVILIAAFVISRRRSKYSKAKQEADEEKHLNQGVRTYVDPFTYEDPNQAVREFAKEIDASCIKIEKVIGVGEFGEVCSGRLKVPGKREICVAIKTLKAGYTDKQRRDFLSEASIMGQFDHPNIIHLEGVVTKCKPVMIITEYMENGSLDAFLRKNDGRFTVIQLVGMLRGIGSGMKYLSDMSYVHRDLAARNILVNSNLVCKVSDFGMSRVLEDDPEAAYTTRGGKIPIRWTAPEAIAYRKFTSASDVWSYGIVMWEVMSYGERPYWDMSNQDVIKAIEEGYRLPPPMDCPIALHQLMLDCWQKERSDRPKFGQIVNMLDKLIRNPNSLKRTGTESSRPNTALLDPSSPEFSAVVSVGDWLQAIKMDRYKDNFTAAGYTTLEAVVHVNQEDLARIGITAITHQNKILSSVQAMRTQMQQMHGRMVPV

Structure (SMILES): Cc1ccc(-c2ccc3c(ccc4sc5c(c43)NC[C@@H](C)NC5=O)n2)cn1
- % of inhibition (Ephrin type-A receptor 4): 7%

Structure (SMILES): Cn1cc(-n2cnc3c(NCc4nc5cc(Cl)c(Cl)cc5[nH]4)nc(N4CCOCC4)nc32)cn1
- % of control [1]: 6.17%

Structure (SMILES): CNC(=O)Nc1ccc(-c2nc(N3CC4CCC(C3)O4)c3cnn(C4CCC5(CC4)OCCO5)c3n2)cc1
- % of control [2]: 91%
- % of control [3]: 100%

Structure (SMILES): N#Cc1cccc(-c2c[nH]c3ncnc(N4CCOCC4)c23)c1
- % of control [4]: 91%
- % of inhibition [5]: 83%
